Assay results from patent publication US10689383B2, “Optionally fused heterocyclyl-substituted derivatives of pyrimidine useful for the treatment of inflammatory, metabolic, oncologic and autoimmune diseases” (NUEVOLUTION A/S, priority 2014, dated 2020).

How the values were obtained:
[1] = biological target: T1, yeast Gal4-DNA binding domain fused to the ligand binding domain of human RORγ (Homo sapiens, UniProt P51449); assay: RORγ Reporter Assay (Gal4); assay type: cell-based; conditions: values given as lower bounds of ranges; for Gal4 activity range @ 0.1 μM (% inhibition): RORγ Reporter Assay (Gal4) at 0.1 μM; for Gal4 activity range @ 1 μM (% inhibition): RORγ Reporter Assay (Gal4) at 1 μM
T1 construct: host or cells: HEK293t
T1 sequence (P51449 269-508 limits assumed): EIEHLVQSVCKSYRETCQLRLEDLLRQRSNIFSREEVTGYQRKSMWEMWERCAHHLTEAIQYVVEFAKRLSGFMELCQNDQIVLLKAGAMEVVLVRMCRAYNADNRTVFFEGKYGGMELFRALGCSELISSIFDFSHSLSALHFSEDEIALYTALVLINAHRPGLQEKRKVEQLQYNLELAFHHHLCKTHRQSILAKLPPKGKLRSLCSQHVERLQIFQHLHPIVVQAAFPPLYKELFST
How it was run: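 HEK293t reporter cells expressing the hybrid, with Gal4-UAS-driven firefly luciferase, treated in triplicate with compound at 1,000 nM and 100 nM (0.1% DMSO) in medium with 10% charcoal-stripped FBS for 24 h at 37 °C. Luminescence read; percent reduction of RLU calculated relative to vehicle.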

[2] = biological target: T2, human RORγt (Ligand Binding Domain) (Homo sapiens, UniProt P51449); assay: Fluorescence Polarization (FP) Assay; conditions: Fluorescence Polarization (FP) Assay; values given as upper bounds of activity ranges; read-out: FP activity range
T2 construct: purchased Crelux (Planegg, Germany) batch no PC5032-1
T2 sequence (P51449 269-508 limits assumed): T1 sequence (P51449 269-508 limits assumed)
How it was run: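 In vitro FP binding assay monitoring ligand binding within the ligand binding pocket. Probe is a TAMRA-labelled RORγt ligand (MW 910 g/mole); DMSO served as negative control.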

Row | SMILES | Gal4 activity range @ 0.1 μM (% inhibition) [1] [% inhibition] | IC50 [2] [nM] | Gal4 activity range @ 1 μM (% inhibition) [1] [% inhibition]
1 | Fc1c(NCC2CCSCC2)ncnc1N1CCC[C@@H]1c1ccc(C(F)(F)F)cc1 [Example 164, 5-fluoro-N-(tetrahydrothiopyran-4-ylmethyl)-6-[(2R)-2-[4-(trifluoromethyl)phenyl]pyrrolidin-1-yl]pyrimidin-4-amine] | >20 | < 500 | 
2 | OC1(CNc2ncnc(N3CCC[C@@H]3c3ccc(C(F)(F)F)cc3)c2F)CCSC1 (stereo partly drawn) [Example 165, 3-[[[5-fluoro-6-[(2R)-2-[4-(trifluoromethyl)phenyl]pyrrolidin-1-yl]pyrimidin-4-yl]amino]methyl]tetrahydrothiophen-3-ol] | >50 | < 500 | 
3 | OC1(CNc2ncnc(N3CCC[C@@H]3c3ccc(C(F)(F)F)cc3)c2F)CCCCCC1 [Example 167, 1-[[[5-fluoro-6-[(2R)-2-[4-(trifluoromethyl)phenyl]pyrrolidin-1-yl]pyrimidin-4-yl]amino]methyl]cycloheptanol] | >0 | < 500 | 
4 | COC1CCCCC1CNc1ncnc(N2CCC[C@@H]2c2ccc(C(F)(F)F)cc2)c1F (stereo partly drawn) [Example 168, 5-fluoro-N-[(2-methoxycyclohexyl)methyl]-6-[(2R)-2-[4-(trifluoromethyl)phenyl]pyrrolidin-1-yl]pyrimidin-4-amine] | >50 | < 500 | 
5 | OC1(CNc2ncnc(N3CCC[C@@H]3c3ccc(C(F)(F)F)cc3)c2F)CCSCC1 [Example 169, 4-[[[5-fluoro-6-[(2R)-2-[4-(trifluoromethyl)phenyl]pyrrolidin-1-yl]pyrimidin-4-yl]amino]methyl]tetrahydrothiopyran-4-o1] | >0 | < 500 | 
6 | NS(=O)(=O)c1ccc(CNc2ncnc(N3CCC[C@@H]3c3ccc(C(F)(F)F)cc3)c2F)cc1 [Example 182, 4-[[[5-fluoro-6-[(2R)-2-[4-(trifluoromethyl)phenyl]pyrrolidin-1-yl]pyrimidin-4-yl]amino]methyl]benzenesulfonamide] | >50 | < 500 | 
7 | Fc1c(NCc2ccc(Cl)nc2)ncnc1N1CCC[C@@H]1c1ccc(C(F)(F)F)cc1 [Example 183, N-[(6-chloro-3-pyridyl)methyl]-5-fluoro-6-[(2R)-2-[4-(trifluoromethyl)phenyl]pyrrolidin-1-yl]pyrimidin-4-amine] | >50 | < 500 | 
8 | Fc1c(NCc2ccsc2)ncnc1N1CCC[C@@H]1c1ccc(C(F)(F)F)cc1 [Example 185, 5-fluoro-N-(3-thienylmethyl)-6-[(2R)-2-[4-(trifluoromethyl)phenyl]pyrrolidin-1-yl]pyrimidin-4-amine] | >50 | < 1000 | 
9 | Fc1c(NCC2CCCOC2)ncnc1N1CCC[C@@H]1c1ccc(C(F)(F)F)cc1 (stereo partly drawn) [Example 186, 5-fluoro-N-(tetrahydropyran-3-ylmethyl)-6-[(2R)-2-[4-(trifluoromethyl)phenyl]pyrrolidin-1-yl]pyrimidin-4-amine] | >0 | < 500 | 
10 | COCC1(CNc2ncnc(N3CCC[C@@H]3c3ccc(C(F)(F)F)cc3)c2F)CCC1 [Example 188, 5-fluoro-N-[[1-(methoxymethyl)cyclobutyl]methyl]-6-[(2R)-2-[4-(trifluoromethyl)phenyl]pyrrolidin-1-yl]pyrimidin-4-amine] | >0 | < 500 | 
11 | CNC(=O)Cc1ccc(CNc2ncnc(N3CCC[C@@H]3c3ccc(C(F)(F)F)cc3)c2F)cc1 [Example 189, 2-[4-[[[5-fluoro-6-[(2R)-2-[4-(trifluoromethyl)phenyl]pyrrolidin-1-yl]pyrimidin-4-yl]amino]methyl]phenyl]-N-methyl-acetamide] | >20 | < 500 | 
12 | Fc1c(NC[C@H]2CC[C@H](Cc3nnn[nH]3)CC2)ncnc1N1CCC[C@@H]1c1ccc(C(F)(F)F)cc1 [Example 190, 5-fluoro-N-[[4-(1H-tetrazol-5-ylmethyl)cyclohexyl]methyl]-6-[(2R)-2-[4-(trifluoromethyl)phenyl]pyrrolidin-1-yl]pyrimidin-4-amine] | >80 | < 500 | >80
13 | CC(=O)N1CCC(CNc2ncnc(N3CCC[C@@H]3c3ccc(C(F)(F)F)cc3)c2F)CC1 [Example 191, 1-[4-[[[5-fluoro-6-[(2R)-2-[4-(trifluoromethyl)phenyl]pyrrolidin-1-yl]pyrimidin-4-yl]amino]methyl]-1-piperidyl]ethanone] | >50 | < 500 | >80
14 | O=C(O)Cc1ccc(CNc2ncnc(N3CCCC3c3ccc(OC(F)(F)F)cc3)c2F)cc1 (stereo not shown) [Example 192, 2-[4-[[[5-fluoro-6-[2-[4-(trifluoromethoxy)phenyl]pyrrolidin-1-yl]pyrimidin-4-yl]amino]methyl]phenyl]acetic acid] | >50 | < 500 | 
15 | O=C(O)Cc1ccc(Cn2ccc3c(N4CCC[C@@H]4c4ccc(C(F)(F)F)cc4)ncnc32)cc1 [Example 195, 2-[4-[[4-[(2R)-2-[4-(trifluoromethyl)phenyl]pyrrolidin-1-yl]pyrrolo[2,3-d]pyrimidin-7-yl]methyl]phenyl]acetic acid] | >80 | < 500 | 
16 | NC(=O)Cc1ccc(Cn2ccc3c(N4CCC[C@@H]4c4ccc(C(F)(F)F)cc4)ncnc32)cc1 [Example 196, 2-[4-[[4-[(2R)-2-[4-(trifluoromethyl)phenyl]pyrrolidin-1-yl]pyrrolo[2,3-d]pyrimidin-7-yl]methyl]phenyl]acetamide] | >80 | < 500 | 
17 | CS(=O)(=O)N1CCC(CNc2ncnc(N3CCC[C@@H]3c3ccc(C(F)(F)F)cc3)c2F)CC1 [Example 197, 5-fluoro-N-[(1-methylsulfonyl-4-piperidyl)methyl]-6-[(2R)-2-[4-(trifluoromethyl)phenyl]pyrrolidin-1-yl]pyrimidin-4-amine] | >80 | < 500 | >80
18 | CC1(CNc2ncnc(N3CCC[C@@H]3c3ccc(C(F)(F)F)cc3)c2F)COC1 [Example 198, 5-fluoro-N-[(3-methyloxetan-3-yl)methyl]-6-[2-[4-(trifluoromethyl)phenyl]pyrrolidin-1-yl]pyrimidin-4-amine] | >20 | < 500 | >80
19 | CC1(CNc2ncnc(N3CCC[C@@H]3c3ccc(C(F)(F)F)cc3)c2F)CCCO1 (stereo partly drawn) [Example 199, 5-fluoro-N-[(2-methyltetrahydrofuran-2-yl)methyl]-6-[(2R)-2-[4-(trifluoromethyl)phenyl]pyrrolidin-1-yl]pyrimidin-4-amine] | >20 | < 1000 | >80
20 | OC1CCCCC1CNc1ncnc(N2CCC[C@@H]2c2ccc(C(F)(F)F)cc2)c1F (stereo partly drawn) [Example 200, 2-[[[5-fluoro-6-[(2R)-2-[4-(trifluoromethyl)phenyl]pyrrolidin-1-yl]pyrimidin-4-yl]amino]methyl]cyclohexanol] | >20 | < 1000 | >80
21 | CC1(CNc2ncnc(N3CCC[C@@H]3c3ccc(C(F)(F)F)cc3)c2F)CCCS1 (stereo partly drawn) [Example 201, 5-fluoro-N-[(2-methyltetrahydrothiophen-2-yl)methyl]-6-[(2R)-2-[4-(trifluoromethyl)phenyl]pyrrolidin-1-yl]pyrimidin-4-amine] | >0 | < 500 | >80
22 | O=S1(=O)CCOC(CNc2ncnc(N3CCC[C@@H]3c3ccc(C(F)(F)F)cc3)c2F)C1 (stereo partly drawn) [Example 202, N-[(4,4-dioxo-1,4-oxathian-2-yl)methyl]-5-fluoro-6-[(2R)-2-[4-(trifluoromethyl)phenyl]pyrrolidin-1-yl]pyrimidin-4-amine] | >0 | < 10000 | >50
23 | Fc1c(NCc2cccs2)ncnc1N1CCC[C@@H]1c1ccc(C(F)(F)F)cc1 [Example 203, 5-fluoro-N-(2-thienylmethyl)-6-[(2R)-2-[4-(trifluoromethyl)phenyl]pyrrolidin-1-yl]pyrimidin-4-amine] | >0 | < 2000 | >50
24 | O=C(O)CC1CCC(CNc2ncnc(N3CCOC[C@@H]3c3ccc(C(F)(F)F)cc3)c2F)CC1 (stereo partly drawn) [Example 205, 2-[4-[[[5-fluoro-6-[(3S)-3-[4-(trifluoromethyl)phenyl]morpholin-4-yl]pyrimidin-4-yl]amino]methyl]cyclohexyl]acetic acid] | >50 | < 500 | >80
